Test system: HCT116 colorectal cancer cells
Assay: Cisplatin sensitization assay (96 h MTS cell viability);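 also: compound concentration needed to lower the IC50 of Cisplatin alone by a set fold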
Type: cell-based
Conditions: Cisplatin sensitization value
Outline: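 HCT116 cells were dosed simultaneously with compound and cisplatin as a full matrix of 2-fold serial dilutions from 10 μM top final concentration. Incubation was 96 h at 37° C., 5% CO2, followed by 1 h with MTS reagent for the viability read-out. Sensitization values were binned into +++, ++ and + categories.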

Row | SMILES | Cisplatin Sensitization Assay
1 | CC(C)N1CCN2CCN(c3ccncc3NC(=O)c3c(N)nn4cc(F)cnc34)CC2C1=O (centres unmarked) [I-N-245, 2-amino-6-fluoro-N-(4-(8-isopropyl-9-oxohexahydro-1H-pyrazino[1,2-a]pyrazin-2(6H)-yl)pyridin-3-yl)pyrazolo[1,5-a]pyrimidine-3-carboxamide] | ++ (Compounds with a Cisplatin sensitization value >0.02 μM but <0.2 μM are marked with “++.”)
2 | Nc1nn2cc(F)cnc2c1C(=O)Nc1cncc(F)c1N1CCCC1 [I-N-246, 2-amino-6-fluoro-N-(5-fluoro-4-(pyrrolidin-1-yl)pyridin-3-yl)pyrazolo[1,5-a]pyrimidine-3-carboxamide] | ++ (Compounds with a Cisplatin sensitization value >0.02 μM but <0.2 μM are marked with “++.”)
3 | Nc1nn2cc(F)cnc2c1C(=O)Nc1cnccc1N1CCN2[C@@H](CCS2(=O)=O)C1 [I-N-247, (S)-2-amino-N-(4-(1,1-dioxidotetrahydro-2H-isothiazolo[2,3-a]pyrazin-5(3H)-yl)pyridin-3-yl)-6-fluoropyrazolo[1,5-a]pyrimidine-3-carboxamide] | +++ (Compounds with a Cisplatin sensitization value of <0.02 μM are marked with “+++.”)
4 | Nc1nn2cc(F)cnc2c1C(=O)Nc1cncc(F)c1N1CCN2C(=O)OC[C@@H]2C1 [I-N-248, (S)-2-amino-6-fluoro-N-(5-fluoro-4-(3-oxotetrahydro-1H-oxazolo[3,4-a]pyrazin-7(3H)-yl)pyridin-3-yl)pyrazolo[1,5-a]pyrimidine-3-carboxamide] | ++ (Compounds with a Cisplatin sensitization value >0.02 μM but <0.2 μM are marked with “++.”)
5 | Nc1nn2cc(F)cnc2c1C(=O)Nc1cnccc1N1CCN(C(=O)C2COC2)CC1 [I-N-249] | +++ (Compounds with a Cisplatin sensitization value of <0.02 μM are marked with “+++.”)
6 | Nc1nn2cc(F)cnc2c1C(=O)Nc1cncc(F)c1N1CCS(=O)(=O)CC1 [I-N-250, 2-amino-N-(4-(1,1-dioxidothiomorpholino)-5-fluoropyridin-3-yl)-6-fluoropyrazolo[1,5-a]pyrimidine-3-carboxamide] | ++ (Compounds with a Cisplatin sensitization value >0.02 μM but <0.2 μM are marked with “++.”)
7 | CC(=O)N1CC2(CCN(c3ccncc3NC(=O)c3c(N)nn4cc(F)cnc34)CC2)C1 [I-N-251, N-(4-(2-acetyl-2,7-diazaspiro[3.5]nonan-7-yl)pyridin-3-yl)-2-amino-6-fluoropyrazolo[1,5-a]pyrimidine-3-carboxamide] | +++ (Compounds with a Cisplatin sensitization value of <0.02 μM are marked with “+++.”)
8 | CC1(C)CN(c2ccncc2NC(=O)c2c(N)nn3cc(F)cnc23)CCS1(=O)=O [I-N-252, 2-amino-N-(4-(2,2-dimethyl-1,1-dioxidothiomorpholino)pyridin-3-yl)-6-fluoropyrazolo[1,5-a]pyrimidine-3-carboxamide] | +++ (Compounds with a Cisplatin sensitization value of <0.02 μM are marked with “+++.”)
9 | Nc1nn2cc(F)cnc2c1C(=O)Nc1cnccc1N1CCCC2(COC2)C1 [I-N-253, N-(4-(2-oxa-6-azaspiro[3.5]nonan-6-yl)pyridin-3-yl)-2-amino-6-fluoropyrazolo[1,5-a]pyrimidine-3-carboxamide] | +++ (Compounds with a Cisplatin sensitization value of <0.02 μM are marked with “+++.”)
10 | Nc1nn2cc(F)cnc2c1C(=O)Nc1cnccc1N1CCC2(CCNC2)CC1 [I-N-255, N-(4-(2,8-diazaspiro[4.5]decan-8-yl)pyridin-3-yl)-2-amino-6-fluoropyrazolo[1,5-a]pyrimidine-3-carboxamide] | ++ (Compounds with a Cisplatin sensitization value >0.02 μM but <0.2 μM are marked with “++.”)
11 | Cc1nnc(N2CCN(c3ccncc3NC(=O)c3c(N)nn4cc(F)cnc34)CC2)o1 [I-N-256, 2-amino-6-fluoro-N-(4-(4-(5-methyl-1,3,4-oxadiazol-2-yl)piperazin-1-yl)pyridin-3-yl)pyrazolo[1,5-a]pyrimidine-3-carboxamide] | ++ (Compounds with a Cisplatin sensitization value >0.02 μM but <0.2 μM are marked with “++.”)
12 | CC(=O)N1CCC2(CCN(c3ccncc3NC(=O)c3c(N)nn4cc(F)cnc34)CC2)C1 [I-N-257, N-(4-(2-acetyl-2,8-diazaspiro[4.5]decan-8-yl)pyridin-3-yl)-2-amino-6-fluoropyrazolo[1,5-a]pyrimidine-3-carboxamide] | +++ (Compounds with a Cisplatin sensitization value of <0.02 μM are marked with “+++.”)
13 | Cn1ccc2cncc(NC(=O)c3c(N)nn4cc(F)cnc34)c21 [I-N-259, 2-amino-6-fluoro-N-(1-methyl-1H-pyrrolo[3,2-c]pyridin-7-yl)pyrazolo[1,5-a]pyrimidine-3-carboxamide] | + (Compounds with a Cisplatin sensitization value >0.2 μM but <5 μM are marked with “+.”)
14 | Cc1nonc1N1CCN(c2ccncc2NC(=O)c2c(N)nn3cc(F)cnc23)CC1 [I-N-260, 2-amino-6-fluoro-N-(4-(4-(4-methyl-1,2,5-oxadiazol-3-yl)piperazin-1-yl)pyridin-3-yl)pyrazolo[1,5-a]pyrimidine-3-carboxamide] | +++ (Compounds with a Cisplatin sensitization value of <0.02 μM are marked with “+++.”)
15 | COC(=O)N1CCN(c2c(F)cncc2NC(=O)c2c(N)nn3cc(F)cnc23)CC1 [I-N-261, methyl-4-(3-(2-amino-6-fluoropyrazolo[1,5-a]pyrimidine-3-carboxamido)-5-fluoropyridin-4-yl)piperazine-1-carboxylate] | +++ (Compounds with a Cisplatin sensitization value of <0.02 μM are marked with “+++.”)
16 | CC(=O)N1CCCC12CCN(c1ccncc1NC(=O)c1c(N)nn3cc(F)cnc13)CC2 [I-N-262, N-(4-(1-acetyl-1,8-diazaspiro[4.5]decan-8-yl)pyridin-3-yl)-2-amino-6-fluoropyrazolo[1,5-a]pyrimidine-3-carboxamide] | +++ (Compounds with a Cisplatin sensitization value of <0.02 μM are marked with “+++.”)
17 | Cc1nncn1-c1ccncc1NC(=O)c1c(N)nn2cc(F)cnc12 [I-N-263, 2-amino-6-fluoro-N-(4-(3-methyl-4H-1,2,4-triazol-4-yl)pyridin-3-yl)pyrazolo[1,5-a]pyrimidine-3-carboxamide] | + (Compounds with a Cisplatin sensitization value >0.2 μM but <5 μM are marked with “+.”)
18 | Nc1nn2cc(F)cnc2c1C(=O)Nc1cnccc1N1CCCCCC1 [I-N-264, 2-amino-N-(4-(azepan-1-yl)pyridin-3-yl)-6-fluoropyrazolo[1,5-a]pyrimidine-3-carboxamide] | + (Compounds with a Cisplatin sensitization value >0.2 μM but <5 μM are marked with “+.”)
19 | Cc1nnc(C2CCN(c3ccncc3NC(=O)c3c(N)nn4cc(F)cnc34)CC2)o1 [I-N-265, 2-amino-6-fluoro-N-(4-(4-(5-methyl-1,3,4-oxadiazol-2-yl)piperidin-1-yl)pyridin-3-yl)pyrazolo[1,5-a]pyrimidine-3-carboxamide] | ++ (Compounds with a Cisplatin sensitization value >0.02 μM but <0.2 μM are marked with “++.”)
20 | COC1CCN(c2ccncc2NC(=O)c2c(N)nn3cc(F)cnc23)CC1 [I-N-266, 2-amino-6-fluoro-N-(4-(4-methoxypiperidin-1-yl)pyridin-3-yl)pyrazolo[1,5-a]pyrimidine-3-carboxamide] | +++ (Compounds with a Cisplatin sensitization value of <0.02 μM are marked with “+++.”)
